# Results: patent US7332568B2, “Q3 SPARC deletion mutant and uses thereof” (Abraxis BioScience, Inc., priority 2005, dated 2008)
# Tested on: gp60-mediated caveolar transcytosis
# Assay: Inhibition of transport of paclitaxel from ABX across endothelial monolayers
# Format: cell-based, human
# Description: Transport was dependent on albumin.
row,Molecule,effect on transport of paclitaxel from ABX across endothelial monolayers
1,CCN1C(=O)C=CC1=O [NEM],inhibited
2,β-methyl cyclodextrin [BMC],inhibited
